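Exposure lasted 48 hours, with cells grown in 96-well plates and compounds tested at five concentrations. GI50: concentration for 50% inhibition of growth.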 Active and inactive are the calls of the source. No stated cut-off is given here; in the data, active = GI50 up to about 1.1 µM and inactive = higher.
Key:
Assay in all cases: growth of human tumour cells (NCI), 48 h
SNB-19 = tested on: SNB-19
PC-3 = tested on: PC-3
RXF 393 = tested on: RXF 393
MDA-MB-231 = tested on: MDA-MB-231
SR = tested on: SR
TK-10 = tested on: TK-10
CCRF-CEM = tested on: CCRF-CEM
SN12C = tested on: SN12C
HOP-62 = tested on: HOP-62
MDA-MB-435 = tested on: MDA-MB-435
NCI/ADR-RES = tested on: NCI/ADR-RES
KM12 = tested on: KM12
UACC-62 = tested on: UACC-62
SW-620 = tested on: SW-620
CAKI-1 = tested on: CAKI-1
SF-268 = tested on: SF-268
K562 = tested on: K562
DU-145 = tested on: DU-145
MOLT-4 = tested on: MOLT-4
SNB-75 = tested on: SNB-75

Structure (SMILES)	GI50 (SNB-19)	GI50 (PC-3)	GI50 (RXF 393)	GI50 (MDA-MB-231)	GI50 (SR)	GI50 (TK-10)	GI50 (CCRF-CEM)	GI50 (SN12C)	GI50 (HOP-62)	GI50 (MDA-MB-435)	GI50 (NCI/ADR-RES)	GI50 (KM12)	GI50 (UACC-62)	GI50 (SW-620)	GI50 (CAKI-1)	GI50 (SF-268)	GI50 (K562)	GI50 (DU-145)	GI50 (MOLT-4)	GI50 (SNB-75)
COC(OC)[C@@H]1OC[C@H](n2cnc3c(N)ncnc32)[C@H]1O	5.06 µM (inactive)	> 100 µM (inactive)	> 100 µM (inactive)	> 100 µM (inactive)	> 100 µM (inactive)	> 100 µM (inactive)	> 100 µM (inactive)	> 100 µM (inactive)	> 100 µM (inactive)	> 100 µM (inactive)	> 100 µM (inactive)	> 100 µM (inactive)	> 100 µM (inactive)	> 100 µM (inactive)	> 100 µM (inactive)	> 100 µM (inactive)	> 100 µM (inactive)	> 100 µM (inactive)	> 100 µM (inactive)	> 100 µM (inactive)
O=C1CCCCC/C1=C\c1ccc([N+](=O)[O-])cc1	29.4 µM (inactive)	38.6 µM (inactive)	33.4 µM (inactive)	13 µM (inactive)	40.1 µM (inactive)	28.5 µM (inactive)	26.7 µM (inactive)	23.7 µM (inactive)	38.5 µM (inactive)	38.1 µM (inactive)	37.8 µM (inactive)	19.8 µM (inactive)	27.8 µM (inactive)	39.9 µM (inactive)	22.7 µM (inactive)	30.5 µM (inactive)	50 µM (inactive)	41.4 µM (inactive)	41.7 µM (inactive)	29.7 µM (inactive)
Cc1ccc(S(=O)(=O)NNC(=S)Nc2cccc3ccccc23)cc1	68.1 µM (inactive)	37.2 µM (inactive)	85.9 µM (inactive)	54.8 µM (inactive)	46.3 µM (inactive)	53.7 µM (inactive)	34.7 µM (inactive)	33.7 µM (inactive)	59.3 µM (inactive)	41.5 µM (inactive)	38.1 µM (inactive)	23.4 µM (inactive)	32.1 µM (inactive)	> 100 µM (inactive)	55.7 µM (inactive)	70.6 µM (inactive)	35.5 µM (inactive)	69 µM (inactive)	38.1 µM (inactive)	27.9 µM (inactive)
Cc1ccc(O)c(C(c2ccc(C(c3cc(C)ccc3O)c3cc(C)ccc3O)cc2)c2cc(C)ccc2O)c1	1.52 µM (inactive)	1.59 µM (inactive)	1.79 µM (inactive)	1.25 µM (inactive)	2.62 µM (inactive)	1.56 µM (inactive)	2.28 µM (inactive)	1.65 µM (inactive)	1.92 µM (inactive)	1.7 µM (inactive)	1.88 µM (inactive)	1.67 µM (inactive)	1.71 µM (inactive)	1.82 µM (inactive)	1.56 µM (inactive)	1.62 µM (inactive)	1.77 µM (inactive)	1.74 µM (inactive)	2.9 µM (inactive)	1.89 µM (inactive)
O=C1C2CC(Cl)C(SSC3CC4C(=O)N(SC(Cl)(Cl)C(Cl)Cl)C(=O)C4CC3Cl)CC2C(=O)N1SC(Cl)(Cl)C(Cl)Cl (stereo not given)	3.86 µM (inactive)	1.29 µM (inactive)	1.33 µM (inactive)	1.54 µM (inactive)	0.229 µM (active)	2.59 µM (inactive)	0.249 µM (active)	1.91 µM (inactive)	2.81 µM (inactive)	1.65 µM (inactive)	2.06 µM (inactive)	5.04 µM (inactive)	1.69 µM (inactive)	1.27 µM (inactive)	2.11 µM (inactive)	1.65 µM (inactive)	0.979 µM (active)	2.6 µM (inactive)	0.192 µM (active)	2.05 µM (inactive)
CC(=O)O[C@@H]1C2=C(C)C=C(O2)[C@H]2O[C@]2(C)C[C@H]2C=C(C(=O)O2)[C@H](OC(C)=O)CC1[C@@]1(C)CO1 (stereo not given in full)	> 100 µM (inactive)	32.4 µM (inactive)	17.2 µM (inactive)	27.4 µM (inactive)	18.7 µM (inactive)	60.3 µM (inactive)	8.59 µM (inactive)	21.3 µM (inactive)	23 µM (inactive)	23.5 µM (inactive)	29.4 µM (inactive)	36.6 µM (inactive)	21.7 µM (inactive)	12.8 µM (inactive)	24.2 µM (inactive)	42 µM (inactive)	17 µM (inactive)	31.3 µM (inactive)	9.64 µM (inactive)	42.5 µM (inactive)
